# Measurements reported in patent US4450269A, “Mono-5-substituted-3-chloro-4H-1,2,6-thiadiazin-4-one antifungal agents” (FMC Corporation, priority 1980, dated 1984).
# Where two headings read alike, the source gives them in different places.
# Experiments:
# Cercospora beticola = test: whole plant or invertebrate; conditions: in Beta vulgaris, foliar, 24 h, read-out: Percent Disease Control, curative, sugar beet leaf spot
# Rhizoctonia solani = test: Mycelial growth test; assay type: cell-based; conditions: RS; for Percent Fungus Growth Inhibition: 72 hours
# Source text: | RS = Rhizoctonia solani
# Fusarium solani [1] = test: Soil treatment, bean root rot; assay type: in vivo; conditions: Fusarium solani, soil, 336 h; 150 ppm suspension, 3.8 mg active per pot; read-out: Percent Disease Control, seed/soil, bean root rot
# Experimental: In a similar manner the soil around a bean seedling was drenched with a sufficient amount of 150 ppm suspension of test chemical to provide 3.8 mg active per pot. Twenty-four hours later the soil was inoculated with a suspension of minced mycelium of Fusarium solani. The inoculated plants were then placed in a greenhouse, evaluated after fourteen days, and percent control of root rot damage calculated. The results, reported in Table III, indicate only a few of the compounds tested are effective in treating Bean Root Rot but that these provide a high degree of control.
# Pyricularia oryzae [2] = test: whole plant or invertebrate; assay type: in vivo
# Phytophthora infestans [3] = test: whole plant or invertebrate; assay type: in vivo
# Fusarium solani [4] = test: Mycelial growth test; assay type: cell-based; conditions: PS, 72 hours
# Uromyces phaseoli [5] = test: whole plant or invertebrate; conditions: foliar, read-out: Percent Disease Control, foliar, bean rust
# Helminthosporium oryzae = test: Mycelial growth test; conditions: for Percent Fungus Growth Inhibition: HO, 72 hours
# Erysiphe polygoni [6] = test: whole plant or invertebrate; conditions: foliar, 24 h, read-out: Percent Disease Control, curative, bean powdery mildew
# Sclerotinia fructicola = test: Mycelial growth test; assay type: cell-based; conditions: SF; for Percent Fungus Growth Inhibition: 72 hours
# Source text: | SF = Sclerotinia fructicola
# Pyricularia oryzae [7] = test: microbe, parasite or virus in culture; assay type: cell-based; conditions: for Percent Fungus Growth Inhibition: PO, 72 hours
# Uromyces phaseoli [8] = test: whole plant or invertebrate; conditions: foliar, 24 h, read-out: Percent Disease Control, curative, bean rust
# Alternaria solani [9] = test: Mycelial growth test; assay type: cell-based; conditions: AS; for Percent Fungus Growth Inhibition: 72 hours
# Pythium ultimum = test: Mycelial growth test; assay type: cell-based; conditions: PU; for Percent Fungus Growth Inhibition: 72 hours
# Erysiphe polygoni [10] = conditions: in vivo
# Phytophthora infestans [11] = assay type: cell-based; conditions: PI, 48 hours
# Uromyces phaseoli [12] = conditions: in vivo
# Cladosporium cucumerinum [13] = test: Mycelial growth test; assay type: cell-based; conditions: CC, 72 hours
# Source text: |CC = Cladosporium cucumerinum
# Cladosporium cucumerinum [14] = test: Spore germination test; assay type: cell-based; conditions: CC, 48 hours
# Experimental: CC = Cladosporium cucumerinum
# (§1) The test chemical was dissolved or suspended in acetone in an amount such that 0.8 ml of the resulting suspension or solution, mixed with 40 ml water agar produced a water agar solution containing 40, 10, 2.5 and 1 ppm of test chemical. The resulting agar solution, at 50° C., was then divided equally between two sterile petri dishes, each having four separated quadrants, and allowed to solidify. […] quadrants of each dish were flooded with 0.1 ml of a spore suspension in sterile water. Spores of two pathogens, Erysiphe polygoni and Uromyes phaseoli, from infected plant leaves, were brushed on the remaining two quadrants. The tests were then incubated 48 hours, at 24° C.
# (§2) Readings were then taken and the percentage of germinated spores calculated. From this percentage, a spore germination rating was assigned as follows: […]
# Pyricularia oryzae [15] = assay type: cell-based; conditions: PO, 48 hours
# Uromyces phaseoli [16] = conditions: in vivo; remark: listed apart in the source
# [17] = system: Pythium ultimum and Rhizoctonia solani; test: Soil/seed treatment, cucumber damping-off complex; assay type: in vivo; conditions: 150 ppm suspension, 3.75 to 3.8 mg per pot
# Experimental: Containers having a volume of about 0.25 l. were 2/3 filled with topsoil and 25 cucumber c.v. [Straight Eight` seeds deposited on the soil surface of each pot. A suspension containing 150 ppm of the test chemical was poured over the seeds and into the soil in sufficient quantity to provide 3.75 to 3.8 mg active ingredient per pot.
# Fungi used in this test were Pythium ultimum and Rhizoctonia solani. These fungi were each grown on potato dextrose agar for three to six days. The agar plus mycelium was then minced in a blender with water and 10 ml of the resulting slurry of minced mycelium poured over the seeds.
# Following inoculation approximately 15 mm of topsoil was spread over the seeds, the container capped and incubated at 4° C. in darkness for three days, then transferred to a greenhouse (27° C.) for 10-14 days, at which time stand counts were made. Captan was used as a standard for comparison. Based on stand counts on Efficacy Index was calculated for each test chemical as follows: [formula]
# Uromyces phaseoli [18] = test: Spore germination test; assay type: cell-based; conditions: UP, 48 hours
# Experimental: as §1, §2
# Alternaria solani [19] = test: Spore germination test; assay type: cell-based; conditions: AS, 48 hours
# Experimental: as §1, §2
# Botrytis cinerea = test: Spore germination test; assay type: cell-based; conditions: BC, 48 hours
# Experimental: as §1, §2
# Erysiphe polygoni [20] = test: Spore germination test; assay type: cell-based; conditions: EP, 48 hours
# Experimental: as §1, §2
molecule,measurement,setting,value
"O=c1c(Cl)nsnc1Cl [Compound 1, 3,5-dichloro-4H--1,2,6-thiadiazin-4-one]",pest or weed control at 150 ppm,Cercospora beticola,0%
same,inhibition at 2.5 ppm,"Rhizoctonia solani; Rhizoctonia solani, 72 h, 2.5 ppm, read-out: Percent Fungus Growth Inhibition",100%
same,inhibition at 5 ppm,"Rhizoctonia solani; Rhizoctonia solani, 72 h, 5 ppm, read-out: Percent Fungus Growth Inhibition",64%
same,inhibition at 10 ppm,"Rhizoctonia solani; Rhizoctonia solani, 72 h, 10 ppm, read-out: Percent Fungus Growth Inhibition",100%
same,"pest or weed control at 150 ppm, 3.8 mg/pot",Fusarium solani [1],0%
same,pest or weed control at 150 ppm,"Pyricularia oryzae [2]; Pyricularia oryzae, foliar, 24 h, read-out: Percent Disease Control, curative, rice blast, 150 ppm, 24 hours after inoculation",0%
same,pest or weed control at 150 ppm,"Phytophthora infestans [3]; Phytophthora infestans, in Solanum lycopersicum, foliar, read-out: Percent Disease Control, foliar, tomato late blight, 150 ppm, protective",0%
same,inhibition at 2.5 ppm,"Fusarium solani [4]; Fusarium solani, 72 h, 2.5 ppm, read-out: Percent Fungus Growth Inhibition",85%
same,inhibition at 5 ppm,"Fusarium solani [4]; Fusarium solani, 72 h, 5 ppm, read-out: Percent Fungus Growth Inhibition",100%
same,inhibition at 10 ppm,"Fusarium solani [4]; Fusarium solani, 72 h, 10 ppm, read-out: Percent Fungus Growth Inhibition",100%
same,pest or weed control at 150 ppm,Uromyces phaseoli [5],0%
same,inhibition at 2.5 ppm,"Helminthosporium oryzae; Bipolaris oryzae, 72 h, read-out: Percent Fungus Growth Inhibition, HO, 2.5 ppm, 72 hours",100%
same,inhibition at 5 ppm,"Helminthosporium oryzae; Bipolaris oryzae, 72 h, read-out: Percent Fungus Growth Inhibition, HO, 5 ppm, 72 hours",100%
same,inhibition at 10 ppm,"Helminthosporium oryzae; Bipolaris oryzae, 72 h, read-out: Percent Fungus Growth Inhibition, HO, 10 ppm, 72 hours",100%
same,pest or weed control at 150 ppm,Erysiphe polygoni [6],0%
same,inhibition at 2.5 ppm,"Sclerotinia fructicola; Sclerotinia, 72 h, 2.5 ppm, read-out: Percent Fungus Growth Inhibition",100%
same,inhibition at 5 ppm,"Sclerotinia fructicola; Sclerotinia, 72 h, 5 ppm, read-out: Percent Fungus Growth Inhibition",100%
same,inhibition at 10 ppm,"Sclerotinia fructicola; Sclerotinia, 72 h, 10 ppm, read-out: Percent Fungus Growth Inhibition",100%
same,inhibition at 2.5 ppm,"Pyricularia oryzae [7]; Pyricularia oryzae, 72 h, read-out: Percent Fungus Growth Inhibition, PO, 2.5 ppm, 72 hours",27%
same,inhibition at 5 ppm,"Pyricularia oryzae [7]; Pyricularia oryzae, 72 h, read-out: Percent Fungus Growth Inhibition, PO, 5 ppm, 72 hours",42%
same,inhibition at 10 ppm,"Pyricularia oryzae [7]; Pyricularia oryzae, 72 h, read-out: Percent Fungus Growth Inhibition, PO, 10 ppm, 72 hours",82%
same,pest or weed control at 150 ppm,Uromyces phaseoli [8],0%
same,inhibition at 2.5 ppm,"Alternaria solani [9]; Alternaria solani, 72 h, 2.5 ppm, read-out: Percent Fungus Growth Inhibition",100%
same,inhibition at 5 ppm,"Alternaria solani [9]; Alternaria solani, 72 h, 5 ppm, read-out: Percent Fungus Growth Inhibition",100%
same,inhibition at 10 ppm,"Alternaria solani [9]; Alternaria solani, 72 h, 10 ppm, read-out: Percent Fungus Growth Inhibition",100%
same,inhibition at 2.5 ppm,"Pythium ultimum; Globisporangium ultimum, 72 h, 2.5 ppm, read-out: Percent Fungus Growth Inhibition",0%
same,inhibition at 5 ppm,"Pythium ultimum; Globisporangium ultimum, 72 h, 5 ppm, read-out: Percent Fungus Growth Inhibition",0%
same,inhibition at 10 ppm,"Pythium ultimum; Globisporangium ultimum, 72 h, 10 ppm, read-out: Percent Fungus Growth Inhibition",100%
"3-chloro-5-[methylaminocarbonyloxy)phenoxyl]-4H-1,2,6-thiadiazin-4-one [Compound 36]",Percent Fungus Growth Inhibition,Rhizoctonia solani; 5 ppm,0%
same,Percent Fungus Growth Inhibition,Rhizoctonia solani; 10 ppm,4%
same,Percent Fungus Growth Inhibition,Rhizoctonia solani; 20 ppm,42%
same,Percent Fungus Growth Inhibition,Rhizoctonia solani; 40 ppm,87%
same,"Percent Disease Control, curative, bean powdery mildew",Erysiphe polygoni [10],0%
same,"Percent Disease Control, curative, rice blast","Pyricularia oryzae [2]; 150 ppm, 24 hours after inoculation",95%
same,"Percent Disease Control, foliar, tomato late blight","Phytophthora infestans [3]; 150 ppm, protective",90%
same,Spore Germination Rating,Phytophthora infestans [11]; 1.0 ppm,4 (80-100)
same,Spore Germination Rating,Phytophthora infestans [11]; 2.5 ppm,4 (80-100)
same,Spore Germination Rating,Phytophthora infestans [11]; 10 ppm,4 (80-100)
same,Spore Germination Rating,Phytophthora infestans [11]; 40 ppm,0 (0-10)
same,Percent Fungus Growth Inhibition,Fusarium solani [4]; 5 ppm,30%
same,Percent Fungus Growth Inhibition,Fusarium solani [4]; 10 ppm,45%
same,Percent Fungus Growth Inhibition,Fusarium solani [4]; 20 ppm,60%
same,Percent Fungus Growth Inhibition,Fusarium solani [4]; 40 ppm,90%
same,"Percent Disease Control, curative, bean rust",Uromyces phaseoli [12],0%
same,Percent Fungus Growth Inhibition,Cladosporium cucumerinum [13]; 5 ppm,0%
same,Percent Fungus Growth Inhibition,Cladosporium cucumerinum [13]; 10 ppm,8%
same,Percent Fungus Growth Inhibition,Cladosporium cucumerinum [13]; 20 ppm,38%
same,Percent Fungus Growth Inhibition,Cladosporium cucumerinum [13]; 40 ppm,62%
same,Percent Fungus Growth Inhibition,Helminthosporium oryzae; 5 ppm,78%
same,Percent Fungus Growth Inhibition,Helminthosporium oryzae; 10 ppm,78%
same,Percent Fungus Growth Inhibition,Helminthosporium oryzae; 20 ppm,89%
same,Percent Fungus Growth Inhibition,Helminthosporium oryzae; 40 ppm,100%
same,Percent Fungus Growth Inhibition,Sclerotinia fructicola; 5 ppm,38%
same,Percent Fungus Growth Inhibition,Sclerotinia fructicola; 10 ppm,62%
same,Percent Fungus Growth Inhibition,Sclerotinia fructicola; 20 ppm,58%
same,Percent Fungus Growth Inhibition,Sclerotinia fructicola; 40 ppm,100%
same,Percent Fungus Growth Inhibition,Pyricularia oryzae [7]; 5 ppm,31%
same,Percent Fungus Growth Inhibition,Pyricularia oryzae [7]; 10 ppm,69%
same,Percent Fungus Growth Inhibition,Pyricularia oryzae [7]; 20 ppm,100%
same,Percent Fungus Growth Inhibition,Pyricularia oryzae [7]; 40 ppm,100%
same,Spore Germination Rating,Cladosporium cucumerinum [14]; 1.0 ppm,4 (80-100)
same,Spore Germination Rating,Cladosporium cucumerinum [14]; 2.5 ppm,3 (60-80)
same,Spore Germination Rating,Cladosporium cucumerinum [14]; 40 ppm,0 (0-10)
same,Spore Germination Rating,Pyricularia oryzae [15]; 1.0 ppm,4 (80-100)
same,Spore Germination Rating,Pyricularia oryzae [15]; 2.5 ppm,2 (40-60)
same,Spore Germination Rating,Pyricularia oryzae [15]; 10 ppm,0 (0-10)
same,Spore Germination Rating,Pyricularia oryzae [15]; 40 ppm,0 (0-10)
same,"Percent Disease Control, foliar, bean rust",Uromyces phaseoli [16],100%
same,Percent Fungus Growth Inhibition,Alternaria solani [9]; 5 ppm,71%
same,Percent Fungus Growth Inhibition,Alternaria solani [9]; 10 ppm,90%
same,Percent Fungus Growth Inhibition,Alternaria solani [9]; 20 ppm,100%
same,Percent Fungus Growth Inhibition,Alternaria solani [9]; 40 ppm,100%
same,"Efficacy Index, seed/soil, cucumber damping-off complex",[17],13
same,Percent Fungus Growth Inhibition,Pythium ultimum; 5 ppm,0%
same,Percent Fungus Growth Inhibition,Pythium ultimum; 10 ppm,42%
same,Percent Fungus Growth Inhibition,Pythium ultimum; 20 ppm,100%
same,Percent Fungus Growth Inhibition,Pythium ultimum; 40 ppm,100%
same,Spore Germination Rating,Uromyces phaseoli [18]; 1.0 ppm,4 (80-100)
same,Spore Germination Rating,Uromyces phaseoli [18]; 2.5 ppm,2 (40-60)
same,Spore Germination Rating,Uromyces phaseoli [18]; 10 ppm,0 (0-10)
same,Spore Germination Rating,Uromyces phaseoli [18]; 40 ppm,0 (0-10)
same,Spore Germination Rating,Alternaria solani [19]; 1.0 ppm,4 (80-100)
same,Spore Germination Rating,Alternaria solani [19]; 2.5 ppm,4 (80-100)
same,Spore Germination Rating,Alternaria solani [19]; 10 ppm,2 (40-60)
same,Spore Germination Rating,Alternaria solani [19]; 40 ppm,0 (0-10)
same,Spore Germination Rating,Botrytis cinerea; 1.0 ppm,4 (80-100)
same,Spore Germination Rating,Botrytis cinerea; 2.5 ppm,4 (80-100)
same,Spore Germination Rating,Botrytis cinerea; 10 ppm,4 (80-100)
same,Spore Germination Rating,Botrytis cinerea; 40 ppm,2 (40-60)
same,Spore Germination Rating,Erysiphe polygoni [20]; 1.0 ppm,4 (80-100)
same,Spore Germination Rating,Erysiphe polygoni [20]; 2.5 ppm,3 (60-80)
same,Spore Germination Rating,Erysiphe polygoni [20]; 10 ppm,1 (10-40)
same,Spore Germination Rating,Erysiphe polygoni [20]; 40 ppm,1 (10-40)
